Data published in a melting point compilation (Tetko et al.).

| SMILES | melting point [°C] |
| --- | --- |
| Cn1c(S)nnc1C(F)F | 171 to 173 |
| Cc1ccc(NC2CCCCC2)nc1 | 89 to 91 |
| O=C(O)CCc1ccc2ccccc2n1 | 107 to 109 |
| ClCc1nc(Cl)c2c3c(sc2n1)CCCC3 | 89 to 91 |
| CC(C)c1ccc(C(=O)O)c(C(C)C)c1 | 99 to 101 |
| CCN(CCC(N)=S)C(C)=O | 56 to 58 |
| CCC1(c2ccccc2)NC(=O)NC1=O (stereo unspecified) | 203 to 205 |
| COc1ccc(CC(=O)NO)cc1 | 159 to 161 |
| CC(C)(C)c1ccc(S(=O)(=O)Cl)s1 | 47 to 49 |
| Cc1ccc(C(=O)NCCN)cc1F | 71 to 73 |
| N#CCc1nc(-c2ccc(C#N)cc2)cs1 | 177 to 179 |
| O=C(O)CCc1cc(Br)cs1 | 76 to 78 |
| COC(=O)c1cc([N+](=O)[O-])cnc1C | 58 to 60 |
| O=C(O)c1ccccc1-n1cnnn1 | 190 to 194 |
| Nc1ccc(S(=O)(=O)N2CCCC(C(=O)O)C2)cc1 (stereo unspecified) | 195 to 197 |
| COc1ccc(CCl)cc1Br | 45 to 51 |
| CNC(C)c1ccc(S(C)=O)cc1 (stereo unspecified) | 52 to 54 |
| O=C(O)C1=COCCO1 | 164 to 166 |
| Cc1ccc(F)cc1Nc1ncc(C(=O)O)cc1Cl | 209 to 211 |
| NC(=O)c1ccc(=O)[nH]c1 | 316 to 318 |
| COc1ccc(C(=O)O)cc1S(=O)(=O)N1CCOCC1 | 218 to 220 |
| O=C(O)c1cccn1-c1cccc(I)c1 | 165 to 167 |

| SMILES | melting point [°C] |
| --- | --- |
| NS(=O)(=O)N1CCc2ccccc21 | 149 to 151 |
| Nc1nnc(-c2cccc(Br)c2)s1 | 216 to 218 |
| Fc1ccc2nc(-c3ccccn3)[nH]c2c1 | 159 to 161 |
| COc1ccc(CCNC(=O)C(C)Cl)cc1OC (stereo unspecified) | 76 to 78 |
| COc1ccc(C(=O)C(F)(F)F)cc1OC | 77 to 79 |
| Nc1sc2c(c1C(=O)O)CCC2 | 147 to 149 |
| O=S(=O)(NCCOc1ncc(C(F)(F)F)cc1Cl)c1c(F)cccc1F | 110 to 112 |
| Oc1ccc(-n2cccn2)cc1 | 107 to 109 |
| N#Cc1ccc(Cl)cc1NC1CCCCC1 | 74 to 76 |
| Cc1ccc(C)n1-c1ccsc1C(=O)O | 185 to 187 |
| CC(C)(C)c1c(C(=O)O)nnn1-c1ccc(Cl)cc1F | 152 to 154 |
| O=C(O)c1ccc(S)c(Cl)c1 | 219 to 221 |
| N#CCC(C(=O)O)c1ccccc1 (stereo unspecified) | 64 to 66 |
| Cc1[nH]c2ccccc2c1C(=O)CCl | 227 to 229 |
| NS(=O)(=O)c1ccc(Br)c(C(=O)O)c1 | 231 to 233 |
| CC(Cl)C(=O)Nc1ccc(N2CCCC2=O)cc1 (stereo unspecified) | 194 to 196 |
| CC(=O)NCC(O)c1ccccc1 (stereo unspecified) | 119 to 121 |
| CC(C)(C)OC(=O)NC1C2CCC(C2)C1C(=O)O (stereo unspecified) | 140 to 142 |
| NC(=O)CS(=O)(=O)c1ccc(C(=O)O)cc1 | 255 to 257 |
| COCCOc1cccc(C(=O)O)c1 | 80 to 82 |
| CCOC(=O)c1oc2ccccc2c1CBr | 77 to 79 |
| CCn1ncc2c(C(=O)O)cc(-c3cccs3)nc21 | 243 to 245 |

| SMILES | melting point [°C] |
| --- | --- |
| O=c1cc(CCl)c2cc3c(cc2o1)CCC3 | 142 to 144 |
| Nc1ccc(C=CC(=O)O)cn1 | 189 to 191 |
| NC(=O)CCNCc1ccccc1 | 164 to 166 |
| Nc1ncc(Br)nc1C(=O)O | 172 to 174 |
| FC(F)(F)c1ccc2sc(C3CCNCC3)nc2c1 | 71 to 73 |
| COc1ccc(C(=O)O)c(Cl)c1 | 209 to 211 |
| N#Cc1ccc2ocnc2c1 | 87 to 89 |
| O=C(O)c1nnn(-c2cccc(C(F)(F)F)c2)c1C1CC1 | 169 to 171 |
| CC(=O)N1CCC(NC(=O)CCl)CC1 | 120 to 122 |
| NC(=O)CNCc1ccccc1 | 90 to 92 |
| COCCOc1ccc(C(N)=S)cc1 | 141 to 143 |
| O=S1(=O)CCCN1c1ccccc1Br | 115 to 117 |
| O=C(Nc1ccco1)OCC(F)(F)F | 78 to 80 |
| NC(=O)Nc1ccc2c(c1)OCO2 | 178 to 182 |
| NNC(=O)c1ccc(F)cc1Br | 151 to 153 |
| N#Cc1ccc(Cl)cc1NC1CCOCC1 | 143 to 145 |
| O=C(O)C(Cc1ccccc1)n1cnnn1 (stereo unspecified) | 162 to 164 |
| Clc1cc(C2CC2)nc2ncnn12 | 99 to 101 |
| O=C(O)c1cccc(Oc2nccs2)c1 | 102 to 104 |
| CCOc1ccc(C(=O)C(C)Cl)cc1 (stereo unspecified) | 62 to 64 |
| NC(CN1CCCC1)=NO | 142 to 144 |
| O=C1NC2CCCCCCC12 (stereo unspecified) | 64 to 66 |

| SMILES | melting point [°C] |
| --- | --- |
| O=C1NCCc2ccc(Br)cc21 | 144 to 146 |
| CC(NC(=O)OC(C)(C)C)c1ccc(-c2cccc(C#N)c2)cc1 (stereo unspecified) | 103 to 105 |
| O=C(c1cccnc1)c1c(F)cc(F)cc1F | 38 to 40 |
| O=C(O)c1ccc(F)c2ccsc12 | 230 to 232 |
| Cc1ccccc1COc1cccc(N)c1 | 61 to 63 |
| COC(=O)CNc1ccccc1 | 45 to 47 |
| Cn1ncnc1COc1ccc(S(=O)(=O)Cl)cc1 | 114 to 116 |
| CS(=O)(=O)Nc1ccc(F)cc1C(=O)O | 204 to 206 |
| NS(=O)(=O)Cc1ccc(C(=O)O)cc1 | 275 to 277 |
| COC(=O)C(=O)CC(=O)c1ccc(OC)cc1F | 101 to 103 |
| Cc1ccc(CC(=O)O)c(Cl)c1 | 129 to 131 |
| OCCN1CCN(c2ccc(CO)nn2)CC1 | 129 to 131 |
| ON=Cc1csnn1 | 136 to 138 |
| Cc1ccc2[nH]c(-c3ccc(Br)cc3)c(CCC(=O)O)c2c1 | 101 to 103 |
| O=c1[nH]c(CCl)nc2scc(-c3ccccc3Cl)c12 | 167 to 169 |
| CCOc1ccccc1C=NO | 64 to 66 |
| Cc1ccc(Sc2nc(=N)s[nH]2)cc1 | 181 to 183 |
| CC(C)n1cnc(S(=O)(=O)Cl)c1 | 62 to 64 |
| CN(C)c1ccc(C=O)s1 | 65 to 67 |
| Cc1ccc(CN2C(=O)CCC2C(=O)O)cc1 (stereo unspecified) | 128 to 130 |
| Cc1nn(-c2ccccc2)c(C(F)(F)Cl)c1C(=O)O | 144 to 146 |
| COc1ccc(C(=O)O)cc1N1CCNC1=O | 246 to 248 |

| SMILES | melting point [°C] |
| --- | --- |
| Clc1cnc(Cl)nc1 | 55 to 57 |
| O=C(O)c1cccc(C(O)C(=O)O)c1 (stereo unspecified) | 189 to 191 |
| N#Cc1c[nH]c(C(=O)O)c1 | 256 to 258 |
| COC(=O)CCCCCNC(=O)c1ccsc1 | 77 to 79 |
| Cc1ccc(CNc2ccc3[nH]c(=O)[nH]c3c2)cc1 | 271 to 273 |
| Cc1csc(CC(=O)NN)n1 | 73 to 75 |
| COC(=O)c1cc([N+](=O)[O-])cc(C)c1C | 72 to 74 |
| O=C(O)C1CCc2nncn2C1 (stereo unspecified) | 279 to 281 |
| COc1ccc(N)cc1OCC(=O)NC1CC1 | 87 to 89 |
| CNc1cnnc2ccccc12 | 232 to 234 |
| Cn1cc(NC(=O)OCC(F)(F)F)ccc1=O | 208 to 210 |
| N#Cc1cc(CBr)ccc1F | 44 to 46 |
| CN(C)c1nnc(S)s1 | 178 to 180 |
| Nc1ccc(Cl)cc1-n1cccc1 | 92 to 94 |
| CC(=O)c1ccc(F)cc1N(C)C | 57 to 59 |
| NC(C(=O)O)c1cccc(C(F)(F)F)c1 (stereo unspecified) | 192 to 194 |
| CS(=O)(=O)c1ccc(Cl)c(S(=O)(=O)Cl)c1 | 141 to 143 |
| Nc1cccc(-c2nccs2)c1 | 62 to 64 |
